Laboratory results published in ChEMBL document CHEMBL1129652, “Substituted 1,2-dihydrophthalazines: potent, selective, and noncompetitive inhibitors of the AMPA receptor” (J Med Chem, 1996).

Each molecule was assayed against Glutamate receptor ionotropic, AMPA (Rattus norvegicus, UniProt P19490+P19491+P19492+P19493).
Description: Inhibitory activity against AMPA receptor currents in rat cortical cells stimulated with 50 uM kainic acid

Going from CC1c2cc3c(cc2C(c2ccc(N)cc2)=NN1C(=O)NC(C)(C)C)OCO3 (stereo not drawn) to CNC(=O)N1N=C(c2ccc(N)cc2)c2cc3c(cc2C1C)OCO3 (stereo not drawn), the IC50 rises from 5.4 µM to 23 µM (4.3-fold).

First: CCNC(=O)N1N=C(c2ccc(N)cc2)c2cc3c(cc2C1C)OCO3 (stereo not drawn)
Second: CCCNC(=O)N1N=C(c2ccc(N)cc2)c2cc3c(cc2C1C)OCO3 (stereo not drawn)
The IC50 of the first is 2.6-fold higher: 7.2 µM for the first, 2.8 µM for the second.

Compared with CCCCNC(=O)N1N=C(c2ccc(N)cc2)c2cc3c(cc2C1C)OCO3 (stereo not drawn), CNC(=O)N1N=C(c2ccc(N)cc2)c2cc3c(cc2CC1C)OCO3 (stereo not drawn) [GYKI-53655] is 1.8-fold lower in IC50: 1.8 µM for the first, 1 µM for the second.

With CC1=NN=C(c2ccc(N)cc2)c2cc3c(cc2C1)OCO3 [GYKI-52466] the IC50 was 10 µM.

What follows are molecules tested against Glutamate receptor ionotropic, AMPA (Rattus norvegicus) (UniProt P19491+P19492+P19493+P19490) (assay: Compound at 10 uM of kainic acid).
Type: functional

With CNC(=O)N1N=C(c2ccc(N)cc2)c2cc3c(cc2C1C)OCO3 (stereo not drawn) the inhibition was 13%.
